This is an account of results in paper PMC11149885 (PLOS ONE, 2024).

The assay has as its system VEGF-induced angiogenesis on the CAM. As to the kind of experiment: Gelatin sponge chick chorioallantoic membrane (CAM) assay. To be noted: 0.5 mg/kg bevacizumab (20.15μM).

Several values for one entry are separate records, joined by “and”; a condition that tells them apart may be missing. Equal entries are not always repeated.

For the substance “Bevacizumab: known anti-VEGF antibody, reference compound (positive control) in the CAM assay”, the “Angiogenesis - Vessel number, Mean” value was found to be 11.4. In addition, the “Angiogenesis - Vessel number, individual egg” value (one value per egg) is 9.33 and 9.67. Besides, the “vessel reduction compared to the negative control” value (p = 0.05) was determined as 18%. Moreover, for the setting “score 0-3”, the “Angiogenesis - Vessel thickness score, Mean” value is on record as 0.8. In addition, where the note is “score 0-3, one value per egg”, the “Angiogenesis - Vessel thickness score, individual egg” value is 1.33 and 0.33 and 1.67 and 0 and 1.
